Results taken from PubChem BioAssay (NCI).
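A five-concentration, 48-hour dose response in 96-well plates underlies each endpoint, interpolated linearly between surrounding concentrations. TGI denotes the concentration required for complete inhibition of growth.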

Experiments:
Test in all cases: inhibition of tumour cell growth, NCI panel, 48 h
786-0 renal = test system: 786-0 renal
A498 renal = test system: A498 renal
A549 NSCLC = test system: A549 NSCLC
ACHN renal = test system: ACHN renal
BT-549 breast = test system: BT-549 breast
CAKI-1 renal = test system: CAKI-1 renal
CCRF-CEM leukemia = test system: CCRF-CEM leukemia
COLO 205 colon = test system: COLO 205 colon
DU-145 prostate = test system: DU-145 prostate
EKVX NSCLC = test system: EKVX NSCLC
HCC-2998 colon = test system: HCC-2998 colon
HCT-116 colon = test system: HCT-116 colon
HCT-15 colon = test system: HCT-15 colon
HL-60(TB) leukemia = test system: HL-60(TB) leukemia
HOP-62 NSCLC = test system: HOP-62 NSCLC
HOP-92 NSCLC = test system: HOP-92 NSCLC
HS 578T breast = test system: HS 578T breast
IGROV1 ovarian = test system: IGROV1 ovarian
KM12 colon = test system: KM12 colon
LOX IMVI melanoma = test system: LOX IMVI melanoma
M14 melanoma = test system: M14 melanoma
MALME-3M melanoma = test system: MALME-3M melanoma
MCF7 breast = test system: MCF7 breast
MDA-MB-231 breast = test system: MDA-MB-231 breast
MDA-MB-435 = test system: MDA-MB-435
MDA-N = test system: MDA-N
MOLT-4 leukemia = test system: MOLT-4 leukemia
NCI-H23 lung = test system: NCI-H23 lung
NCI-H460 lung = test system: NCI-H460 lung
NCI-H522 lung = test system: NCI-H522 lung
OVCAR-3 ovarian = test system: OVCAR-3 ovarian
OVCAR-4 ovarian = test system: OVCAR-4 ovarian
OVCAR-5 ovarian = test system: OVCAR-5 ovarian
PC-3 prostate = test system: PC-3 prostate
RPMI-8226 leukemia = test system: RPMI-8226 leukemia
RXF 393 renal = test system: RXF 393 renal
SF-268 CNS = test system: SF-268 CNS
SF-295 CNS = test system: SF-295 CNS
SF-539 CNS = test system: SF-539 CNS
SK-MEL-2 melanoma = test system: SK-MEL-2 melanoma
SK-MEL-28 melanoma = test system: SK-MEL-28 melanoma
SK-MEL-5 melanoma = test system: SK-MEL-5 melanoma
SK-OV-3 ovarian = test system: SK-OV-3 ovarian
SN12C renal = test system: SN12C renal
SNB-19 CNS = test system: SNB-19 CNS
SNB-75 CNS = test system: SNB-75 CNS
SR leukemia = test system: SR leukemia
SW-620 colon = test system: SW-620 colon
T-47D breast = test system: T-47D breast
TK-10 renal = test system: TK-10 renal
U251 CNS = test system: U251 CNS
UACC-257 melanoma = test system: UACC-257 melanoma
UACC-62 melanoma = test system: UACC-62 melanoma
UO-31 renal = test system: UO-31 renal
HT29 colon = test system: HT29 colon
K-562 leukemia = test system: K-562 leukemia
NCI-H226 lung = test system: NCI-H226 lung
NCI/ADR-RES ovarian = test system: NCI/ADR-RES ovarian
OVCAR-8 ovarian = test system: OVCAR-8 ovarian

## Cc1cccc(C(C)C)c1NC(=O)C(=O)CC(=O)c1sc(Nc2ccccc2Cl)nc1C
786-0 renal
  TGI: > 100 µM
A498 renal
  TGI: > 100 µM
A549 NSCLC
  TGI: > 100 µM
ACHN renal
  TGI: > 100 µM
BT-549 breast
  TGI: 93.2 µM
CAKI-1 renal
  TGI: > 100 µM
CCRF-CEM leukemia
  TGI: > 100 µM
COLO 205 colon
  TGI: > 100 µM
DU-145 prostate
  TGI: > 100 µM
EKVX NSCLC
  TGI: > 100 µM
HCC-2998 colon
  TGI: 32.7 µM
HCT-116 colon
  TGI: > 100 µM
HCT-15 colon
  TGI: > 100 µM
HL-60(TB) leukemia
  TGI: 41 µM
HOP-62 NSCLC
  TGI: > 100 µM
HOP-92 NSCLC
  TGI: 66.2 µM
HS 578T breast
  TGI: > 100 µM
IGROV1 ovarian
  TGI: > 100 µM
KM12 colon
  TGI: > 100 µM
LOX IMVI melanoma
  TGI: > 100 µM
M14 melanoma
  TGI: > 100 µM
MALME-3M melanoma
  TGI: > 100 µM
MCF7 breast
  TGI: > 100 µM
MDA-MB-231 breast
  TGI: > 100 µM
MDA-MB-435
  TGI: 33.2 µM
MDA-N
  TGI: 54.6 µM
MOLT-4 leukemia
  TGI: > 100 µM
NCI-H23 lung
  TGI: > 100 µM
NCI-H460 lung
  TGI: 51.1 µM
NCI-H522 lung
  TGI: > 100 µM
OVCAR-3 ovarian
  TGI: > 100 µM
OVCAR-4 ovarian
  TGI: > 100 µM
OVCAR-5 ovarian
  TGI: > 100 µM
PC-3 prostate
  TGI: > 100 µM
RPMI-8226 leukemia
  TGI: > 100 µM
RXF 393 renal
  TGI: > 100 µM
SF-268 CNS
  TGI: > 100 µM
SF-295 CNS
  TGI: > 100 µM
SF-539 CNS
  TGI: 24.7 µM
SK-MEL-2 melanoma
  TGI: > 100 µM
SK-MEL-28 melanoma
  TGI: > 100 µM
SK-MEL-5 melanoma
  TGI: 87.9 µM
SK-OV-3 ovarian
  TGI: > 100 µM
SN12C renal
  TGI: > 100 µM
SNB-19 CNS
  TGI: > 100 µM
SNB-75 CNS
  TGI: > 100 µM
SR leukemia
  TGI: > 100 µM
SW-620 colon
  TGI: > 100 µM
T-47D breast
  TGI: > 100 µM
TK-10 renal
  TGI: > 100 µM
U251 CNS
  TGI: > 100 µM
UACC-257 melanoma
  TGI: > 100 µM
UACC-62 melanoma
  TGI: > 100 µM
UO-31 renal
  TGI: > 100 µM

## Clc1ncnc(Cl)c1Cl
786-0 renal
  TGI: > 100 µM
A549 NSCLC
  TGI: > 100 µM
ACHN renal
  TGI: > 100 µM
CAKI-1 renal
  TGI: > 100 µM
CCRF-CEM leukemia
  TGI: > 100 µM
COLO 205 colon
  TGI: > 100 µM
DU-145 prostate
  TGI: > 100 µM
HCC-2998 colon
  TGI: > 100 µM
HCT-116 colon
  TGI: > 100 µM
HCT-15 colon
  TGI: > 100 µM
HOP-62 NSCLC
  TGI: > 100 µM
HOP-92 NSCLC
  TGI: > 100 µM
HS 578T breast
  TGI: > 100 µM
HT29 colon
  TGI: > 100 µM
IGROV1 ovarian
  TGI: > 100 µM
K-562 leukemia
  TGI: > 100 µM
KM12 colon
  TGI: > 100 µM
LOX IMVI melanoma
  TGI: > 100 µM
M14 melanoma
  TGI: > 100 µM
MALME-3M melanoma
  TGI: > 100 µM
MCF7 breast
  TGI: > 100 µM
MDA-MB-231 breast
  TGI: > 100 µM
MDA-MB-435
  TGI: > 100 µM
MDA-N
  TGI: > 100 µM
MOLT-4 leukemia
  TGI: > 100 µM
NCI-H226 lung
  TGI: > 100 µM
NCI-H23 lung
  TGI: > 100 µM
NCI-H460 lung
  TGI: > 100 µM
NCI-H522 lung
  TGI: > 100 µM
NCI/ADR-RES ovarian
  TGI: > 100 µM
OVCAR-3 ovarian
  TGI: > 100 µM
OVCAR-4 ovarian
  TGI: > 100 µM
OVCAR-5 ovarian
  TGI: > 100 µM
OVCAR-8 ovarian
  TGI: > 100 µM
PC-3 prostate
  TGI: > 100 µM
RPMI-8226 leukemia
  TGI: > 100 µM
RXF 393 renal
  TGI: > 100 µM
SF-268 CNS
  TGI: > 100 µM
SF-295 CNS
  TGI: > 100 µM
SF-539 CNS
  TGI: > 100 µM
SK-MEL-28 melanoma
  TGI: > 100 µM
SK-MEL-5 melanoma
  TGI: > 100 µM
SK-OV-3 ovarian
  TGI: > 100 µM
SN12C renal
  TGI: > 100 µM
SNB-19 CNS
  TGI: > 100 µM
SNB-75 CNS
  TGI: > 100 µM
SR leukemia
  TGI: > 100 µM
SW-620 colon
  TGI: > 100 µM
T-47D breast
  TGI: > 100 µM
TK-10 renal
  TGI: > 100 µM
U251 CNS
  TGI: > 100 µM
UACC-62 melanoma
  TGI: > 100 µM
UO-31 renal
  TGI: > 100 µM
